Source: US20230210797A1, “PREVENTING AND TREATING HYPOGLYCEMIA” (DIAMYD MEDICAL AB, priority 2019, published 2023)
Entries after “also recorded” stand apart in the source; their conditions may differ.

Tests used:
[1] = Time spent below, within and above normal blood glucose range (4-10 mmol/L), FreeStyle Libre Pro FGM; format: in vivo, human; details: for Time above range, Mean / Time above range, Median / Time below range, Mean / Time below range, Median / Time within range, Mean / Time within range, Median: normal blood glucose range 4-10 mmol/L, n=6
Excerpt: The FreeStyle Libre Pro FGM System is a professional glucose monitoring device indicated for detecting trends and tracking patterns and glucose level excursions above or below the desired range, facilitating therapy adjustments in persons with diabetes. Readings from the FreeStyle Libre Pro FGM System are not made available directly to patients in real time. The FreeStyle Libre Pro FGM System aids in the detection of episodes of hyperglycemia and hypoglycemia, facilitating therapy adjustments.
Patients will receive the Freestyle Libre Pro at the site at Visit 1 and Visit 2 in the Safety and Dose Escalation study and will be instructed how to return the FreeStyle Libre to the site after each of the testing period. For the main study patients will receive the Freestyle Libre Pro at the site during Visit 1 (all Treatment arms), Visit 7 (Treatment arm 1), Visit 8 (Treatment arm 2 and 3) and will be instructed how to return the FreeStyle Libre to the site after each of the testing period. However, for Visit 9 (Treatment arm 1) and Visit 10 (Treatment arm 2 and 3) patients will be instructed to come to the site 14 days before the visit to receive the Freestyle Libre and have it activated. The patients will then return the Freestyle Libre at Visit 9 or Visit 10, depending on treatment arm. The timing of the distribution of the glucose monitoring system and assessments is described in Above.
Blood glucose levels for all six patients in the dose escalation part of the study was measured during certain time intervals to determine time spent in, above, and below normal blood glucose range (4-10 mmol/L).

[2] = tested on: norepinephrine; assay: Hypoglycemic clamp: plasma norepinephrine levels; format: in vivo, human; details: for Norepinephrine, change from baseline, Mean (SD) / Norepinephrine, change from baseline, Median (Min, Max) / Norepinephrine, observed value, Mean (SD) / Norepinephrine, observed value, Median (Min, Max): C-peptide undetectable, n=5
Procedure: In order to evaluate the counterregulatory hormone response to hypoglycemia, a hypoglycemic clamp will be performed. The Hypoglycemic Clamp must be performed according to the instructions in the Operations Manual. (Appendix 3)
The patient should: • Come to the study site following an overnight fast (>10 hours), i.e. the patient may not eat but is permitted to drink water • Not have taken the Remygen and, if applicable, Alprazolam dose in the morning • Not take short acting/direct acting insulin within 6 hours before the investigation. • The patient is allowed to take base-insulin day/night before, but not in the morning before the investigation.
Patients with CSII (insulin pump) must continue with their basal dose insulin, but not add bolus dose during the last 6 hours before the investigation.
If a patient has a blood sugar level <4 mmol/L in the morning of the scheduled visit, the patient is allowed to take dextrose tablets and then come to the study site. The patient is allowed to perform the investigation if the blood sugar level is >4 mmol/L.
In the dose-escalation part of the study, the patient will take study drug 30 min prior to start of the hypoglycemic clamp. In the main study, the study drug will instead be taken after finalization of the hypoglycemic clamp. Baseline blood samples will be obtained for glucose, glucagon, epinephrine, norepinephrine, growth hormone and cortisol. The clamp will then be initiated by an intravenous insulin infusion at a rate of 2 mU×kg^−1×min^−1. Glucose 100 mg/ml will then be administered in variable infusion rates to clamp the blood glucose concentration at 5.5 mmol/land then at 2.5 mmol/land kept stable for 30 min. Blood glucose will be evaluated repeatedly in order to find the optimal glucose infusion rate. Blood sampling to determined levels of counterregulatory hormones as described above will be performed at each of these target levels when a stable glucose concentration has been reached. The insulin infusion will thereafter be terminated and the patient is allowed to eat and will be observed until normoglycemia is achieved. If necessary, additional glucose administration will be given to allow blood glucose concentrations to normalize.
Only patients with c-peptide levels that were undetectable (in a standard assay, i.e. <0.01 nmol/L) are included (5 of 6) in the data below.
Plasma levels of glucagon, cortisol, epinephrine, growth hormone and glucose were measured at baseline (increased glucose in T1D subjects). Plasma glucose was first lowered to normoglycemic levels (5.5 mmol/L) and hormone levels monitored, and then to hypoglycemic levels (2.5 mmol/L) and hormone levels monitored. Difference was calculated as a measurement of the response to hypoglycemia.

[3] = normal range 4-10 mmol/L, all six patients of dose escalation part
[4] = Visit 5, 200 mg GABA per day, event 2.5 mmol/L
[5] = Visit 5, 200 mg GABA per day, event 5.5 mmol/L
[6] = Visit 5, 200 mg GABA per day, event Baseline
[7] = Visit 5, 200 mg GABA per day, event Diff 2.5-5.5 mmol/L
[8] = Visit 7, 600 mg GABA per day, event 2.5 mmol/L
[9] = Visit 7, 600 mg GABA per day, event 5.5 mmol/L
[10] = Visit 7, 600 mg GABA per day, event Baseline
[11] = Visit 7, 600 mg GABA per day, event Diff 2.5-5.5 mmol/L
[12] = Visit 9, 1200 mg GABA per day, event 2.5 mmol/L
[13] = Visit 9, 1200 mg GABA per day, event 5.5 mmol/L
[14] = Visit 9, 1200 mg GABA per day, event Baseline
[15] = Visit 9, 1200 mg GABA per day, event Diff 2.5-5.5 mmol/L

Structure (SMILES): NCCCC(=O)O [GABA, Gamma-amino butyric acid]
- Time above range, Mean ([1]; Day 3 to 4): 28.7%
- Time above range, Median ([1]; Day 3 to 4): 28.8%
- Time below range, Mean ([1]; Day 3 to 4): 14.8%
- Time below range, Median ([1]; Day 3 to 4): 14.3%
- Time within range, Mean ([1]; Day 3 to 4): 56.6%
- Time within range, Median ([1]; Day 3 to 4): 62.0%
- Time above range, Mean ([1]; Day 6 to 7): 37.7%
- Time above range, Median ([1]; Day 6 to 7): 36.5%
- Time below range, Mean ([1]; Day 6 to 7): 4.8%
- Time below range, Median ([1]; Day 6 to 7): 4.0%
- Time within range, Mean ([1]; Day 6 to 7): 57.6%
- Time within range, Median ([1]; Day 6 to 7): 59.5%
- Time above range, Mean ([1]; Day 9): 39.5%
- Time above range, Median ([1]; Day 9): 50.0%
- Time below range, Mean ([1]; Day 9): 5.5%
- Time below range, Median ([1]; Day 9): 2.5%
- Time within range, Mean ([1]; Day 9): 55.0%
- Time within range, Median ([1]; Day 9): 47.0%
- Time above normal blood glucose range, effect of GABA treatment [1, 3]: decreased
- Time below normal blood glucose range, effect of GABA treatment [1, 3]: decreased
- Time in normal blood glucose range, effect of GABA treatment [1, 3]: increased
- Norepinephrine, change from baseline, Mean (SD) [2, 4]: −0.44 (0.61) nmol(L
- Norepinephrine, change from baseline, Median (Min, Max) [2, 4]: −0.30 (−1.3, 0.2) nmol(L
- Norepinephrine, observed value, Mean (SD) [2, 4]: 1.82 (0.41) nmol(L
- Norepinephrine, observed value, Median (Min, Max) [2, 4]: 1.90 (1.4, 2.3) nmol(L
- Norepinephrine, change from baseline, Mean (SD) [2, 5]: −0.16 (0.52) nmol(L
- Norepinephrine, change from baseline, Median (Min, Max) [2, 5]: 0.00 (−0.9, 0.5) nmol(L
- Norepinephrine, observed value, Mean (SD) [2, 5]: 1.78 (0.52) nmol(L
- Norepinephrine, observed value, Median (Min, Max) [2, 5]: 1.60 (1.2, 2.5) nmol(L
- Norepinephrine, change from baseline, Mean (SD) [2, 6]: −0.34 (0.53) nmol(L
- Norepinephrine, change from baseline, Median (Min, Max) [2, 6]: −0.50 (−0.9, 0.5) nmol(L
- Norepinephrine, observed value, Mean (SD) [2, 6]: 1.46 (0.35) nmol(L
- Norepinephrine, observed value, Median (Min, Max) [2, 6]: 1.50 (1.1, 2.0) nmol(L
- Norepinephrine, change from baseline, Mean (SD) [2, 7]: −0.28 (0.59) nmol(L
- Norepinephrine, change from baseline, Median (Min, Max) [2, 7]: 0.00 (−1.3, 0.1) nmol(L
- Norepinephrine, observed value, Mean (SD) [2, 7]: 0.04 (0.29) nmol(L
- Norepinephrine, observed value, Median (Min, Max) [2, 7]: 0.20 (−0.4, 0.3) nmol(L
- Norepinephrine, change from baseline, Mean (SD) [2, 8]: −0.56 (0.73) nmol(L
- Norepinephrine, change from baseline, Median (Min, Max) [2, 8]: −0.50 (−1.6, 0.3) nmol(L
- Norepinephrine, observed value, Mean (SD) [2, 8]: 1.70 (0.27) nmol(L
- Norepinephrine, observed value, Median (Min, Max) [2, 8]: 1.70 (1.4, 2.1) nmol(L
- Norepinephrine, change from baseline, Mean (SD) [2, 9]: −0.10 (0.31) nmol(L
- Norepinephrine, change from baseline, Median (Min, Max) [2, 9]: −0.10 (−0.4, 0.3) nmol(L
- Norepinephrine, observed value, Mean (SD) [2, 9]: 1.84 (0.34) nmol(L
- Norepinephrine, observed value, Median (Min, Max) [2, 9]: 2.00 (1.3, 2.1) nmol(L
- Norepinephrine, change from baseline, Mean (SD) [2, 10]: −0.32 (0.49) nmol(L
- Norepinephrine, change from baseline, Median (Min, Max) [2, 10]: −0.30 (−0.9, 0.4) nmol(L
- Norepinephrine, observed value, Mean (SD) [2, 10]: 1.48 (0.70) nmol(L
- Norepinephrine, observed value, Median (Min, Max) [2, 10]: 1.20 (1.0, 2.7) nmol(L
- Norepinephrine, change from baseline, Mean (SD) [2, 11]: −0.46 (0.50) nmol(L
- Norepinephrine, change from baseline, Median (Min, Max) [2, 11]: −0.50 (−1.2, 0.0) nmol(L
- Norepinephrine, observed value, Mean (SD) [2, 11]: −0.14 (0.27) nmol(L
- Norepinephrine, observed value, Median (Min, Max) [2, 11]: −0.30 (−0.4, 0.2) nmol(L
- Norepinephrine, change from baseline, Mean (SD) [2, 12]: −0.66 (0.68) nmol(L
- Norepinephrine, change from baseline, Median (Min, Max) [2, 12]: −0.70 (−1.6, 0.0) nmol(L
- Norepinephrine, observed value, Mean (SD) [2, 12]: 1.60 (0.42) nmol(L
- Norepinephrine, observed value, Median (Min, Max) [2, 12]: 1.60 (1.2, 2.2) nmol(L
- Norepinephrine, change from baseline, Mean (SD) [2, 13]: −0.46 (0.84) nmol(L
- Norepinephrine, change from baseline, Median (Min, Max) [2, 13]: −0.20 (−1.7, 0.4) nmol(L
- Norepinephrine, observed value, Mean (SD) [2, 13]: 1.48 (0.50) nmol(L
- Norepinephrine, observed value, Median (Min, Max) [2, 13]: 1.40 (0.8, 2.2) nmol(L
- Norepinephrine, change from baseline, Mean (SD) [2, 14]: −0.58 (0.59) nmol(L
- Norepinephrine, change from baseline, Median (Min, Max) [2, 14]: −0.50 (−1.3, 0.2) nmol(L
- Norepinephrine, observed value, Mean (SD) [2, 14]: 1.22 (0.35) nmol(L
- Norepinephrine, observed value, Median (Min, Max) [2, 14]: 1.00 (0.9, 1.6) nmol(L
- Norepinephrine, change from baseline, Mean (SD) [2, 15]: −0.20 (0.55) nmol(L
- Norepinephrine, change from baseline, Median (Min, Max) [2, 15]: −0.40 (−0.7, 0.7) nmol(L
- Norepinephrine, observed value, Mean (SD) [2, 15]: 0.12 (0.41) nmol(L
- Norepinephrine, observed value, Median (Min, Max) [2, 15]: 0.00 (−0.2, 0.8) nmol(L
- Normoglycemic levels of norepinephrine, effect of GABA treatment ([2]; clamped to 5.5 mmol/L): decrease
- Baseline (no clamp) norepinephrine levels, effect of GABA treatment ([2]; dose escalation part, oral GABA, type 1 diabetes patients with undetectable c-peptide): downregulated; also recorded: decrease
